Key:
[1] = molecular target: Macrophage colony-stimulating factor 1 receptor (Homo sapiens) (UniProt P07333); test: Selectivity interaction (KinomeScan (DiscoverX)) EUB0000666a CSF1R; details: at 10 µM
[2] = molecular target: T1, Histone-lysine N-methyltransferase EHMT2 (Homo sapiens) (UniProt Q96KQ7); details: at 1 µM
T1 sequence (whole entry): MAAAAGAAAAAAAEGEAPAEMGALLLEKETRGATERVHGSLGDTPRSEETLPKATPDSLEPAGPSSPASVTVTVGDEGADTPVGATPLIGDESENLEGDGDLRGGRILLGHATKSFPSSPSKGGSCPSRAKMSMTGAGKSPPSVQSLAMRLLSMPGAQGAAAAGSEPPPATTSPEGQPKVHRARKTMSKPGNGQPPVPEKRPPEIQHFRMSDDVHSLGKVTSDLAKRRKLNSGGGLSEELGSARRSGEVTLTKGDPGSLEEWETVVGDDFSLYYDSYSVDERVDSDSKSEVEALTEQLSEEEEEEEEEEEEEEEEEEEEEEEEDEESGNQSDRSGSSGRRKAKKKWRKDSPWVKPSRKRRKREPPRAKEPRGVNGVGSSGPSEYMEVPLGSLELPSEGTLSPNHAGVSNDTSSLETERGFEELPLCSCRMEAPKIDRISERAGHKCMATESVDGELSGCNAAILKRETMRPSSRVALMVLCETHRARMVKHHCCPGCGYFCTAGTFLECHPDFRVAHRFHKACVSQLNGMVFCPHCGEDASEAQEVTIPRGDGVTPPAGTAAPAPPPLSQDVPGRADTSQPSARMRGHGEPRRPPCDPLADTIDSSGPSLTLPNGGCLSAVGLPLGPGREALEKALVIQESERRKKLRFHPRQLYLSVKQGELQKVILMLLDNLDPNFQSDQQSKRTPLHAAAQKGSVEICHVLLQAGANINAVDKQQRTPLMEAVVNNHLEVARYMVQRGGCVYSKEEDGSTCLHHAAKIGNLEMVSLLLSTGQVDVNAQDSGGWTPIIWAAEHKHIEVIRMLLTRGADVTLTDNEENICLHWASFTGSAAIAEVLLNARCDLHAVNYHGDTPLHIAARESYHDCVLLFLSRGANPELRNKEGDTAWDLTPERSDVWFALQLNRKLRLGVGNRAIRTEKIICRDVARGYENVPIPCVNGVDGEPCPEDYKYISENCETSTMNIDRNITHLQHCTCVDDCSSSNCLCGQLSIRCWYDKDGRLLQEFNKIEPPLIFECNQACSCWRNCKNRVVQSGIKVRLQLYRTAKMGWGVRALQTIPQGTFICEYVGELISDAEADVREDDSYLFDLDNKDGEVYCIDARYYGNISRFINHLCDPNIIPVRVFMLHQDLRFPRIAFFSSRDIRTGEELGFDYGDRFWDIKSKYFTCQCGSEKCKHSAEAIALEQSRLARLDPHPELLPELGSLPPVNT

[3] = molecular target: Calcium/calmodulin-dependent protein kinase type 1 (Homo sapiens) (UniProt Q14012); test: Selectivity interaction (KinomeScan (DiscoverX)) EUB0001079a CAMK1; details: at 1 µM
Chain of Calcium/calmodulin-dependent protein kinase type 1 (Homo sapiens) (Q14012 whole entry, looked up): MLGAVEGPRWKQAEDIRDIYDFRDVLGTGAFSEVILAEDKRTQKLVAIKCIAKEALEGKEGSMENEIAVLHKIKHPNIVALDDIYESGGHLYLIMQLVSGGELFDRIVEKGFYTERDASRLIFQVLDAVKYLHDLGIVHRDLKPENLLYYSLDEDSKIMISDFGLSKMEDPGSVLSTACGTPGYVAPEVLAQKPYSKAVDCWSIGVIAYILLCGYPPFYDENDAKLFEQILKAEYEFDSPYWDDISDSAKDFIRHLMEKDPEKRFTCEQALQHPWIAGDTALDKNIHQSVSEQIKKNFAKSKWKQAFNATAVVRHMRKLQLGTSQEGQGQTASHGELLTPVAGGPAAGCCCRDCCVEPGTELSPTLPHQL

[4] = molecular target: Dual specificity tyrosine-phosphorylation-regulated kinase 1A (Homo sapiens, UniProt Q13627); test: Selectivity interaction (Kinase panel (DSF assay)) EUB0001558a DYRK1A
[5] = molecular target: T2, Mitogen-activated protein kinase kinase kinase 6 (Homo sapiens) (UniProt O95382); test: Selectivity interaction (ActivX KiNativ screen (kinase selectivity in THP-1 cell lysates)) EUB0000639a MAP3K6; type: subcellular; details: lysate, at 0.2 µM
T2 sequence (whole entry): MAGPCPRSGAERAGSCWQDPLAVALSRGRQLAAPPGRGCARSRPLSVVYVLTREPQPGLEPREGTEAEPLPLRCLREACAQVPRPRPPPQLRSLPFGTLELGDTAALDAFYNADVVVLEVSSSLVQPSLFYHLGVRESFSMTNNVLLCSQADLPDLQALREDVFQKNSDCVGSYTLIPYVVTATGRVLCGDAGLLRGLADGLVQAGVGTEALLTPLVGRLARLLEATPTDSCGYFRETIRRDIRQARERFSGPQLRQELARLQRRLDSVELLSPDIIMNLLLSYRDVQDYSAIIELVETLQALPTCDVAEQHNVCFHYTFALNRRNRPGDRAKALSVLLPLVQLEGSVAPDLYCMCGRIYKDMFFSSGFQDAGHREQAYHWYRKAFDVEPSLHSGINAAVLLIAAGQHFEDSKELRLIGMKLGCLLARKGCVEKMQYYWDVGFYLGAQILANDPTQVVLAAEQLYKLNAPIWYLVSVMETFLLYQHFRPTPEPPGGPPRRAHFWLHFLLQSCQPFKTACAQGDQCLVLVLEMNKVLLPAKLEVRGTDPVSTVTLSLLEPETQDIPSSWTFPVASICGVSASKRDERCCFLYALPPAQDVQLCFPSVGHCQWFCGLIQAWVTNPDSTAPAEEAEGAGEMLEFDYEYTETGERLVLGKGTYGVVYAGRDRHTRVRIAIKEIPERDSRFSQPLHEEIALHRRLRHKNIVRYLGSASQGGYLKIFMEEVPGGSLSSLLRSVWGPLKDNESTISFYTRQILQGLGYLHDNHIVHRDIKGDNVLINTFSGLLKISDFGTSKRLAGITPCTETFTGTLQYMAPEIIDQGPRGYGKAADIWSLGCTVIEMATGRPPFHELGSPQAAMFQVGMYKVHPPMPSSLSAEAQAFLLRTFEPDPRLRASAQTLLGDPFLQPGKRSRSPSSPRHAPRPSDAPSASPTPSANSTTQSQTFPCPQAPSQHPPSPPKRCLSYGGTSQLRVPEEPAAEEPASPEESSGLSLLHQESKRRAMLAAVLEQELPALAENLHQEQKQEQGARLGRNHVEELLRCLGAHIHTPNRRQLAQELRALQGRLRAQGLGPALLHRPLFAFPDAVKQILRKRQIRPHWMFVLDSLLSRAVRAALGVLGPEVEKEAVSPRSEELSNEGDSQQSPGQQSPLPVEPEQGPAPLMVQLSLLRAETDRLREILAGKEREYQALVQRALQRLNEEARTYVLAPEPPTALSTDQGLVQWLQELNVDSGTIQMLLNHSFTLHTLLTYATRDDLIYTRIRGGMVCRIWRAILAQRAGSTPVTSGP

[6] = molecular target: Cyclin-dependent kinase 18 (Homo sapiens) (UniProt Q07002); test: Selectivity interaction (ActivX KiNativ screen (kinase selectivity in THP-1 cell lysates)) EUB0000639a CDK18; type: subcellular; details: lysate, at 0.04 µM
Chain of Cyclin-dependent kinase 18 (Homo sapiens) (Q07002 whole entry): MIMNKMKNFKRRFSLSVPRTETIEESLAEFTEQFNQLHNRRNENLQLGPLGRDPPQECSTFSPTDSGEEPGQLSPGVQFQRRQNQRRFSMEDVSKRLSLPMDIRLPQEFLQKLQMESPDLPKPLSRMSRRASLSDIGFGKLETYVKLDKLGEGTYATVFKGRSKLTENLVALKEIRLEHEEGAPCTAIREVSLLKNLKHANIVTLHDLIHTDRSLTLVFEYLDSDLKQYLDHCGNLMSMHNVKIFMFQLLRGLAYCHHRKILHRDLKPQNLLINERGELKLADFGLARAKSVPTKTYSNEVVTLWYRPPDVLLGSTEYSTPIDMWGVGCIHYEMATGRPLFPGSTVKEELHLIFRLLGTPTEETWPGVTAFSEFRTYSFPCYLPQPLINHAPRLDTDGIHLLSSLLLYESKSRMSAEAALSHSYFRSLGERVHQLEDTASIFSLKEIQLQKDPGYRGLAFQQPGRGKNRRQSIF

[7] = molecular target: Mitogen-activated protein kinase 7 (Homo sapiens) (UniProt Q13164); test: Selectivity interaction (ActivX KiNativ screen (kinase selectivity in THP-1 cell lysates)) EUB0000639a MAPK7; type: subcellular; details: lysate
Chain of Mitogen-activated protein kinase 7 (Homo sapiens) (Q13164 2-816 limits assumed): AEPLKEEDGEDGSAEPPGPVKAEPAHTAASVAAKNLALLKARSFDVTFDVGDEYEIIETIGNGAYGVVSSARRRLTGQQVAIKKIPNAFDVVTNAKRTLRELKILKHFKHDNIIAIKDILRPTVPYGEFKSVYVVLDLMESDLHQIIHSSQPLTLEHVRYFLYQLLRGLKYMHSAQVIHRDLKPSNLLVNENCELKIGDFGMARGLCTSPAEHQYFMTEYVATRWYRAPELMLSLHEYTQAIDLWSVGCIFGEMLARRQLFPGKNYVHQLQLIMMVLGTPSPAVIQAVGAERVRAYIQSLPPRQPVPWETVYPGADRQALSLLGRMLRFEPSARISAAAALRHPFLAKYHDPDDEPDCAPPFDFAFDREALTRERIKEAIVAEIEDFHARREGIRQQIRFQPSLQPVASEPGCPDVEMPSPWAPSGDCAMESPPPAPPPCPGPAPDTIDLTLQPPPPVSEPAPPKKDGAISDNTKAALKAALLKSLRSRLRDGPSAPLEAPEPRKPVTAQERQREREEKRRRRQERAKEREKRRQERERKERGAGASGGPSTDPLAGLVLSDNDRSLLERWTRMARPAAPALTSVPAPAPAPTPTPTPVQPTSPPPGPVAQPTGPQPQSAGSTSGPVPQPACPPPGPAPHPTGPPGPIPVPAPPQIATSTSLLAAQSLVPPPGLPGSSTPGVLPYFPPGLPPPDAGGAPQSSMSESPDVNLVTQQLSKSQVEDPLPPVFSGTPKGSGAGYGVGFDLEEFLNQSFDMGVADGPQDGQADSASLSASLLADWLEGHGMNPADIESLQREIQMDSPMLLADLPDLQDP

[8] = molecular target: Death-associated protein kinase 2 (Homo sapiens) (UniProt Q9UIK4); test: Selectivity interaction (Upstate Kinase Profiler service (Millipore)) EUB0000056c DAPK2; details: at 1 µM
Chain of Death-associated protein kinase 2 (Homo sapiens) (Q9UIK4 whole entry, looked up): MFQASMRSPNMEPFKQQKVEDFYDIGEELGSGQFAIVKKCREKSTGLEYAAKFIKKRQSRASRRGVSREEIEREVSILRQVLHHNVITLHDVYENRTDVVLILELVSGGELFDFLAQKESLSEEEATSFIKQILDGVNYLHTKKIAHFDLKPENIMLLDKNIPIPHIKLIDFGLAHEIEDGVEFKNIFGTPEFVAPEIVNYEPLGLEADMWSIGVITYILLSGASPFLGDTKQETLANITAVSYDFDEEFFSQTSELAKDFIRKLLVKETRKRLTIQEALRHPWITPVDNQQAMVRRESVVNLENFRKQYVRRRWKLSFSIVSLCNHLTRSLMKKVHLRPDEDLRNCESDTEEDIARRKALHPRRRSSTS

Chain of Macrophage colony-stimulating factor 1 receptor (Homo sapiens) (P07333 whole entry): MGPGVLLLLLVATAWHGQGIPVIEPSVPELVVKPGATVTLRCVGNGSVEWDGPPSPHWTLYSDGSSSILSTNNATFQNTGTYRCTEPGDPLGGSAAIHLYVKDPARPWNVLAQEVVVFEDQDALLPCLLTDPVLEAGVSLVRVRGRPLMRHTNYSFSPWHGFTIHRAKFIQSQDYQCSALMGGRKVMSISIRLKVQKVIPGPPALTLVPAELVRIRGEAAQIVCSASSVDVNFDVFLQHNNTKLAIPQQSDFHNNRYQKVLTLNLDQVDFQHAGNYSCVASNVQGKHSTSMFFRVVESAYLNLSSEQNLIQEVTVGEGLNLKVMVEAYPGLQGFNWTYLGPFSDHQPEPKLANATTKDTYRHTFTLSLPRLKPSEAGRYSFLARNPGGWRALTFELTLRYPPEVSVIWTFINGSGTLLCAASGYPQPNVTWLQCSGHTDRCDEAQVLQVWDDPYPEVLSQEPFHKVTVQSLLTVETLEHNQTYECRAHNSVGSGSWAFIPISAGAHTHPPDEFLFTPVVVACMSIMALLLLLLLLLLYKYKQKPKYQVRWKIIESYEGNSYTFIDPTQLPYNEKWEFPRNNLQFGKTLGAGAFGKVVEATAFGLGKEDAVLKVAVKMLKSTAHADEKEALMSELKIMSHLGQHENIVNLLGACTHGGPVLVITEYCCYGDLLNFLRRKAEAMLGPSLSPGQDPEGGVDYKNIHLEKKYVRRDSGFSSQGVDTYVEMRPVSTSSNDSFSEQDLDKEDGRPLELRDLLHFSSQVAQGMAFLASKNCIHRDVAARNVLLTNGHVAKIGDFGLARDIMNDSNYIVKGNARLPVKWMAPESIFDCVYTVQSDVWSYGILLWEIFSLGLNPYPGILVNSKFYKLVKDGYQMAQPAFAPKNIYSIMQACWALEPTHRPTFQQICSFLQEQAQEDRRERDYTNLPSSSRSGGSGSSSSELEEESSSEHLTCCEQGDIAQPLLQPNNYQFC

In the case of `O=C(NOC[C@H](O)CO)c1ccc(F)c(F)c1Nc1ccc(I)cc1F`, the % of control [1] is reported as 100%.
`CNCCN1CCC(c2cc(CN(C)C(=O)c3cccc(Oc4ccccc4)c3)ccn2)CC1` was tested, and the % activity [2] was over 90%.
Compound `Nc1cnc(N2CCc3cc(S(=O)(=O)Nc4c(F)cc(Cl)cc4F)cc(N4CCCC4=O)c32)nc1` [TP-020n] has a % of control [3] of 88%.
`CC(C)(O)[C@H](F)CN1Cc2cc(NC(=O)c3cnn4cccnc34)c(N3CCOCC3)cc2C1=O` showed a dTM [4] of 0.2 K.
`CC[C@@H]1[C@H](F)C(=O)N[C@@H]1COc1nccc2cc(C(N)=O)c(OC)cc12` [ZIMLOVISERTIB] gave a % of inhibition [5] of -13.5%, a % of inhibition [6] of 1.7% and a % of inhibition ([7]; at 0.01 µM) of -4.2%. For the same compound, the % of inhibition ([7]; at 0.04 µM) was 1.9%, the % of inhibition ([7]; at 0.2 µM) was -8.8% and the % of inhibition ([7]; at 1 µM) was -11.9%. For the same compound, the % of inhibition ([7]; at 5 µM) was 15.7%.
In the case of `Cc1ccc(-c2ccc3c(ccc4sc5c(c43)NC[C@@H](C)NC5=O)n2)cn1`, the % of inhibition [8] is reported as 30%.
